Here are results for three compounds from article PMC3371172 (Chemical biology & drug design, 2012).

For assay [1], the system named is HUVEC. Type of assay: cell-based, human.
Assay [2] deals with HUVEC. Particulars: 20 µM; cited from earlier work.
In assay [3] the test system is HUVEC. Conditions: 20 µM; cited from earlier work. The source holds these as a separate data set.

Non-standard residues stand in square brackets, D forms with d. Residues, ends and D or L forms follow the SMILES beside them. No end group written: not given here.

Turning to `CC[C@H](C)[C@H](NC(=O)[C@H](CC(N)=O)NC(=O)[C@@H](NC(=O)[C@H](Cc1ccccc1)NC(=O)[C@@H](C)NC(=O)[C@H](Cc1ccccc1)NC(=O)[C@@H]1CCCN1C(=O)[C@H](CCSC)NC(=O)[C@@H](NC(=O)[C@H](CO)NC(=O)[C@H](Cc1ccccc1)NC(=O)[C@H](CCCNC(=N)N)NC(=O)[C@H](CCCNC(=N)N)NC(=O)[C@@H](N)CC(C)C)[C@@H](C)O)[C@@H](C)CC)C(=O)N[C@@H](CC(N)=O)C(=O)N[C@@H](CC(N)=O)C(=O)N[C@H](C(=O)N[C@H](C(=O)N[C@@H](CC(N)=O)C(=O)N[C@@H](Cc1ccccc1)C(N)=O)[C@@H](C)CC)C(C)C` [SP2034] (H-LRRFSTMPF[dA]FININNVINF-NH2), half-maximal inhibition in the assay with HUVEC [1] (IC50) required 0.54 ± 0.19 µM.
Consider LRRFSTMPFMFCNINNVCNF [SP2000], for which the “inhibition of HUVEC proliferation” value in the assay on HUVEC [2] is recorded as 70%. Besides, the “inhibition of HUVEC migration” value with HUVEC [3] is 60%.
The compound LRRFSTMPFMFININNVINF-NH2 [SP2024] registered an IC50 in the assay on HUVEC [1] of 7.45 ± 5.7 µM.
